The results in this text go back to patent publication EP4682156A1, “LINKER AND DRUG CONJUGATE USING SAME, AND ANTIBODY-DRUG CONJUGATE AND USE THEREOF” (Shanghai Affinity Biopharmaceutical Co., Ltd., priority 2023, dated 2024).

*1 amine or outer side, *2 acyl side, *3 side chain or, on linkers, in order; H or OH if unused. Where a SMILES comes first, the peptide text is derived from it. [ ]: non-standard residue; d: D form. The star is where a group is joined. Exatecan = CC[C@@]1(O)C(=O)OCc2c1cc1n(c2=O)Cc2c-1nc1cc(F)c(C)c3c1c2[C@@H](N*)CC3; Hexanoyl(6-maleimido) = O=C1C=CC(=O)N1CCCCCC(=O)*; Propanoyl(3-maleimido) = O=C1C=CC(=O)N1CCC(=O)*; PEG6 = NCCOCCOCCOCCOCCOCCOCCC(=O)O; NHCH2OCH2CO = O=C(COCN[*:1])[*:2]

The nature of series [1]: Stability in human plasma. The note with it: 20 hours, 37°C.
Series [2] is described as follows: Stability in monkey heart homogenate. It is filed as in vitro ADME. The settings on record: 20 hours, 37°C, pH 5.0. As for the experimental part: (§1) • Assay buffer: 25 mM MES, pH 5.0. • Protein precipitation agent: DMSO/MEOH = 1:1
(§2) Preparation of sample solution: An appropriate amount of MI-PEG6-GGFL-AM-DXD and EMC-GGFG-AM-DXD were weighed and added with a certain amount of DMSO solution to make the concentration of the stock solution thereof being 10 umol/mL. Then 10uL of the stock solution were taken and added with 80uL of DMSO to dilute to 1 umol/mL. Then pure water was added in a ratio of 1:4 to dilute the sample solution to a concentration of 0.2 umol/mL.
An appropriate amount of fast frozen heart by liquid nitrogen was placed in a 4 mL EP tube and weighed. Assay buffer with pH 5.0 was added at a mass-to-volume ratio of 1:5. The tissue was homogenized using a tissue grinder for 3 min. The heart homogenate was then centrifuged at 12,000 rpm for 5 min. The supernatant was collected and stored in a -40°C refrigerator for later use.
The sample solution and the heart homogenate were respectively taken at a volume ratio of 1:9 and shaken thoroughly. Another sample solution and buffer solution (pH 5.0) were also shaken thoroughly at a volume ratio of 1:9 as a blank control solution. The solution was placed in a 37°C constant temperature water bath. 30uL was taken at 0h, 2h, 4h, and 20h, and added with 90uL of protein precipitation agent and shaken thoroughly. […]

Another series has as its target cathepsin B (Homo sapiens, UniProt P07858). Kind of series: Enzymatic cleavage by cathepsin B, released DXD quantified by HPLC. It is filed as biochemical. The settings on record: 20 hours of action of cathepsin B, 37°C, pH 5.0. As for the experimental part: (§3) About 25 mg of DXD reference substance was accurately weighed and placed in a 5 mL volumetric flask. DMSO was added to the scale mark and the mixture was mixed to prepare a 10 mM solution which was marked as the standard stock solution. The standard stock solution was taken and prepared into standard solutions with concentrations of 20nmol/mL, 10nmol/mL, 5nmol/mL, 2nmol/mL, 1nmol/mL, and 0.2nmol/mL. 10uL was taken and injected into HPLC, the peak area was recorded. The linear equation was calculated by using the peak area as the ordinate and the concentration as the abscissa.
(§4) • chromatographic column: Agilent Eclipse Plus C18 5um, 4.6*250mm • Fluorescence detector: […] • Mobile phase A: 0.1%TFA/H2O B: ACN • Flow rate: 1ml/min • Injection volume: 10uL
• Activation buffer: 25mM MES, 5mM DTT, pH 5.0 • Assay buffer: 25 mM MES, pH 5.0. • Cathepsin B: 100 µg/mL in activation buffer, incubated at room temperature for 15 minutes
Preparation of sample solution: An appropriate amount of MI-PEG6-GGFL-AM-DXD and EMC-GGFG-AM-DXD were respectively weighed and added with a certain amount of DMSO solution to make the concentration of the stock solution thereof being 10 umol/mL. Then 10uL of the stock solution was respectively taken and added with 80uL of DMSO to dilute to 1 umol/mL. […]

A short description of series [3]: Stability in monkey liver homogenate. Type of series: in vitro ADME. The settings on record: 20 hours, 37°C, pH 5.0. As for the experimental part: as §1, §2
An appropriate amount of fast frozen liver by liquid nitrogen was placed in a 4 mL EP tube and weighed. Assay buffer with pH 5.0 was added at a mass-to-volume ratio of 1:5. The tissue was homogenized using a tissue grinder for 3 min. The liver homogenate was then centrifuged at 12,000 rpm for 5 min. The supernatant was collected and stored in a -40°C refrigerator for later use.
The sample solution and the liver homogenate were respectively taken at a volume ratio of 1:9 and shaken thoroughly. Another sample solution and buffer solution (pH 5.0) were also shaken thoroughly at a volume ratio of 1:9 as a blank control solution. The solution was placed in a 37°C constant temperature water bath. 30uL was taken at 0h, 2h, 4h, and 20h, and added with 90uL of protein precipitation agent and shaken thoroughly. […]

Series [4] addresses T1, cathepsin L (Homo sapiens, UniProt P07711). The series is described as follows: Enzymatic cleavage by cathepsin L, released DXD quantified by HPLC. It is filed as biochemical. The settings on record: pH 6.
Series [5] is described as follows: Activation in human gastric cancer tumor homogenate (tumor homogenate 1). The settings on record: tumor homogenate 1, after 20 hours, 37°C, pH 5.0.
Series [6] is described as follows: Activation in CT26 tumor homogenate (tumor homogenate 2). The settings on record: tumor homogenate 2 (CT26), 20 hours, 37°C, pH 5.0.
In a further series the test system is Human Fibrosarcoma. The series is described as follows: Drug efficacy study of drug conjugates on human fibrosarcoma tumor model. Type of series: in vivo, Nude mice.
The target of series [7] is T1, cathepsin L. Kind of series: Enzymatic cleavage by cathepsin L, released DXD quantified by HPLC. Type of series: biochemical. The settings on record: within 20 h. As for the experimental part:
as §3, §4
• Assay Buffer: 50mM MES, 5mM DTT, 1mM EDTA, 0.005% (w/v) Brij-35, pH6.0. • Cathepsin L: 100 µg/mL in assay buffer, incubated on ice for 15 min.
Preparation of sample solution: An appropriate amount of L-AM-DXD was weighed and added with a certain amount of DMSO solution to make the concentration of the stock solution being 10 umol/mL. Then 10uL of the stock solution was taken and added with 80uL of DMSO to dilute to 1 umol/mL. Then pure water was added in a ratio of 1:4 to dilute the sample solution to a concentration of 0.2 umol/mL. […]

Series [8] in a line: Stability in human plasma. It is filed as in vitro ADME. The settings on record: within 20 hours. As for the experimental part:
• PBS buffer: pH = 7.2 • Protein precipitation agent: DMSO/MEOH = 1:1
Preparation of sample solution: An appropriate amount of MI-PEG6-GGFL-AM-DXD and GGFG-AM-DXD were weighed and added with a certain amount of DMSO solution to make the concentration of the stock solution thereof being 10 umol/mL. Then 10uL of the stock solution was taken and added with 80uL of DMSO to dilute to 1 umol/mL. Then pure water was added in a ratio of 1:4 to dilute the sample solution to a concentration of 0.2 umol/mL.
An appropriate amount of sample was weighed and prepared into a 1 mM solution with DMSO. Human plasma was added at a volume ratio of 1:9 and the solution was incubated in a 37°C incubator. Samples were taken after 0, 2, 4, 6, and 20 h. DMSO/MEOH (1:1) was added at a volume ratio of 1:3 to remove protein. The solution was centrifuged at 12,000 rpm for 5 min and the supernatant was collected. The HPLC method was as described in 1.2 of Example 4.

Setting [9] is: 5 µmol/kg (1/10 MTD) once a week for 3 weeks, Day 20.

T1 sequence (P07711 114-333): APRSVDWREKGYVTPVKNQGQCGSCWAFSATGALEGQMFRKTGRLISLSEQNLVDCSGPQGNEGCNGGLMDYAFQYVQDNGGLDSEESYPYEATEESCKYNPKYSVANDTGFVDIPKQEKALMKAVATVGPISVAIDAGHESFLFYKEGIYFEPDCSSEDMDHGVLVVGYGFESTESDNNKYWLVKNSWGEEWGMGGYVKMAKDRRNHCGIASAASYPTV

As to `CC[C@@]1(O)C(=O)OCc2c1cc1n(c2=O)Cc2c-1nc1cc(F)c(C)c3c1c2[C@@H](NC(=O)COCNC(=O)CNC(=O)[C@H](Cc1ccccc1)NC(=O)CNC(=O)CNC(=O)CCCCCN1C(=O)C=CC1=O)CC3` [EMC-GGFG-AM-DXD, reference compound] ({Hexanoyl(6-maleimido)}-GGFG[NHCH2OCH2CO]-Exatecan), the “DXD produced, share of the substrate” value was found to be 2.88% in series [1], 7.41% in series [2] and 27.6% in [3]. In series [1], this compound came in with a substrate contents of 97.1%. Moreover, the “DXD produced by enzymatic cleavage, share of the reaction substrate” value at cathepsin B is recorded as 45.2%. Further, the “DXD produced, share of the reaction substrate (enzymatic cleavage activation efficiency)” value at cathepsin L [4] is 27.8%.

For `CC[C@@]1(O)C(=O)OCc2c1cc1n(c2=O)Cc2c-1nc1cc(F)c(C)c3c1c2[C@@H](NC(=O)COCNC(=O)[C@H](CC(C)C)NC(=O)[C@H](Cc1ccccc1)NC(=O)CNC(=O)CNC(=O)CCOCCOCCOCCOCCOCCOCCNC(=O)CCN1C(=O)C=CC1=O)CC3` [GGFL-AM-DXD] ({Propanoyl(3-maleimido)-PEG6}-GGFL[NHCH2OCH2CO]-Exatecan), the “DXD produced, share of the substrate” value in [5] came out at 94.2%; in series [6] it was 98.7%.

For `CC[C@@]1(O)C(=O)OCc2c1cc1n(c2=O)Cc2c-1nc1cc(F)c(C)c3c1c2[C@@H](NC(=O)COCNC(=O)[C@H](CC(C)C)NC(=O)[C@H](Cc1ccccc1)NC(=O)CNC(=O)CNC(=O)CCOCCOCCOCCOCCOCCOCCNC(=O)CCN1C(=O)C=CC1=O)CC3` [S7, MI-PEG6-GGFL-AM-DXd] ({Propanoyl(3-maleimido)-PEG6}-GGFL[NHCH2OCH2CO]-Exatecan), in the series with Human Fibrosarcoma (setting [9]), the “Anti-tumor rate% Day 20” value was found to be 98% and the “Tumor volume(mm^3) Day 20” value was determined as 20 mm^3. The “treatment efficacy compared with DXd” value in the series on Human Fibrosarcoma (same dose 5 µmol/kg once a week for 3 weeks) is listed as “significantly improved treatment efficacy”. Also, the “Enzymatic cleavage efficiency %” value on cathepsin L [7] came out at 98.3%. In [8], this compound registered a Generated load % of 1.7% and a Substrate content % of 98.3%.
